The results in this text go back to patent US11884671B2, “Purinone compounds and their use in treating cancer” (ASTRAZENECA AB, priority 2018, dated 2024).

One experiment has as its target JAK1 (Homo sapiens (Human), UniProt P23458). Nature of the experiment: JAK1 enzyme assay (Z'-LYTE). In kind it is biochemical. Particulars: 75 μM ATP, arithmetic mean of two or more experiments; for IC50: read-out: JAK1 enz pIC50 (converted). As to the method: (§1) The inhibitory activity of compounds against AURKA, AURKB, JAK1, JAK2 and JAK3 was determined in Z′-LYTE® assays run by ThermoFisher Scientific as part of their SelectScreen® Biochemical Kinase Profiling Service. The Z′-LYTE® biochemical assay format employs a fluorescence-based, coupled-enzyme format and is based on the differential sensitivity of phosphorylated and non-phosphorylated peptides to proteolytic cleavage. The peptide substrate is labeled with two fluorophores—one at each end—that make up a FRET pair. In the primary reaction, the kinase transfers the gamma-phosphate of ATP to a single tyrosine, serine or threonine residue in a synthetic FRET-peptide. In the secondary reaction, a site-specific protease recognises and cleaves non-phosphorylated FRET-peptides. Phosphorylation of FRET-peptides suppresses cleavage by the Development Reagent. Cleavage disrupts FRET between the donor (i.e., coumarin) and acceptor (i.e., fluorescein) fluorophores on the FRET-peptide, whereas uncleaved, phosphorylated FRET-peptides maintain FRET. A ratiometric method, which calculates the ratio (the Emission Ratio) of donor emission to acceptor emission after excitation of the donor fluorophore at 400 nm, is used to quantitate reaction progress. Both cleaved and uncleaved FRET-peptides contribute to the fluorescence signals and therefore to the Emission Ratio. The extent of phosphorylation of the FRET-peptide can be calculated from the Emission Ratio.
(§2) 10 point three-fold dilution compound concentration-response curves, with a top concentration of 10 μM were generated from 10 mM stocks of compound solubilised in DMSO. All assays were performed in black, non-binding, low volume Corning 384-well plates (cat. #4514, Corning), in a total reaction volume of 10 μL and 1% (v/v) final DMSO concentration. […] The kinase reaction was then quenched by the addition of 5 μL of Development Reagent (ThermoFisher Scientific proprietary). […] IC50 values were calculated using XLfit software (IDBS Ltd, Surrey, UK), with the curve fit to model number 205 (sigmoidal dose-response model).
JAK1: The 2×JAK/Tyr 06 (ThermoFisher Scientific proprietary) mixture was prepared in 50 mM HEPES pH 6.5, 0.01% BRIJ-35, 10 mM MgCl2, 1 mM EGTA, 0.02% NaN3. […] After the 1 hour Kinase Reaction incubation, 5 μL of a 1:128 dilution of Development Reagent was added.

The next experiment concerns the target JAK3 (Homo sapiens (Human), UniProt P52333). The experiment in a line: JAK3 enzyme assay (Z'-LYTE). The class given is biochemical. The settings on record: 10 μM ATP, arithmetic mean of two or more experiments; for IC50: read-out: JAK3 enz pIC50 (converted). As for the experimental part: as §1, §2
JAK3: The 2×JAK3/Tyr 06 (ThermoFisher Scientific proprietary) mixture was prepared in 50 mM HEPES pH 7.5. 0.01% BRIJ-35, 10 mM MgCl2, 1 mM EGTA. […] After the 1 hour Kinase Reaction incubation, 5 μL of a 1:128 dilution of Development Reagent was added.

The target of a further experiment is DNAPK (Homo sapiens (Human), UniProt P78527). The experiment in a line: DNAPK cellular potency assay (DNA-PK cell), pS2056-DNAPK ELISA in irradiated A549 cells. The class given is cell-based. Particulars: 8 Gy radiation, arithmetic mean of two or more experiments, read-out: DNA-PK cell pIC50 (converted). As for the experimental part: The DNAPK cell ELISA assay was performed in the A549 cell line. A549 cells were cultured in cell media composed of MEM-F12 (Minimum Essential Medium F12 Sigma #D6421), 10% (v/v) Foetal Calf Serum and 1% (v/v) 200 mM L-Glutamine. […] The following day the Greiner ELISA plates were washed 3× with PBS-T and blocked with 3% BSA/PBS for 2 h, before a further 3× wash with PBS-T.
The cell plates were then incubated for 1 h at 37° C. before receiving a radiation dose of 8 Gy (XRAD 320, table height 65). The cells were incubated for a further 1 h before removal of cell media. […] Cell lysates ([…]) were transferred to the DNAPK antibody-coated ELISA plates using a CyBio Felix liquid handling platform, and ELISA plates were incubated at 4° C. overnight.
The following day, ELISA plates were washed 3× with PBS-T and dispensed with in-house pS2056-DNAPK antibody (0.5 μg/mL in 3% BSA/PBS) at 20 ul/well.
The fluorescence intensity of individual wells was determined using a PerkinElmer EnVision plate reader.
Data was analysed and IC50 values were calculated using Genedata Screener® software (Genedata, Inc., Basel, Switzerland).
A general note: In an ELISA, binding on a coated surface is turned into a signal by an enzyme label.

Chain of JAK1 (P23458 whole entry): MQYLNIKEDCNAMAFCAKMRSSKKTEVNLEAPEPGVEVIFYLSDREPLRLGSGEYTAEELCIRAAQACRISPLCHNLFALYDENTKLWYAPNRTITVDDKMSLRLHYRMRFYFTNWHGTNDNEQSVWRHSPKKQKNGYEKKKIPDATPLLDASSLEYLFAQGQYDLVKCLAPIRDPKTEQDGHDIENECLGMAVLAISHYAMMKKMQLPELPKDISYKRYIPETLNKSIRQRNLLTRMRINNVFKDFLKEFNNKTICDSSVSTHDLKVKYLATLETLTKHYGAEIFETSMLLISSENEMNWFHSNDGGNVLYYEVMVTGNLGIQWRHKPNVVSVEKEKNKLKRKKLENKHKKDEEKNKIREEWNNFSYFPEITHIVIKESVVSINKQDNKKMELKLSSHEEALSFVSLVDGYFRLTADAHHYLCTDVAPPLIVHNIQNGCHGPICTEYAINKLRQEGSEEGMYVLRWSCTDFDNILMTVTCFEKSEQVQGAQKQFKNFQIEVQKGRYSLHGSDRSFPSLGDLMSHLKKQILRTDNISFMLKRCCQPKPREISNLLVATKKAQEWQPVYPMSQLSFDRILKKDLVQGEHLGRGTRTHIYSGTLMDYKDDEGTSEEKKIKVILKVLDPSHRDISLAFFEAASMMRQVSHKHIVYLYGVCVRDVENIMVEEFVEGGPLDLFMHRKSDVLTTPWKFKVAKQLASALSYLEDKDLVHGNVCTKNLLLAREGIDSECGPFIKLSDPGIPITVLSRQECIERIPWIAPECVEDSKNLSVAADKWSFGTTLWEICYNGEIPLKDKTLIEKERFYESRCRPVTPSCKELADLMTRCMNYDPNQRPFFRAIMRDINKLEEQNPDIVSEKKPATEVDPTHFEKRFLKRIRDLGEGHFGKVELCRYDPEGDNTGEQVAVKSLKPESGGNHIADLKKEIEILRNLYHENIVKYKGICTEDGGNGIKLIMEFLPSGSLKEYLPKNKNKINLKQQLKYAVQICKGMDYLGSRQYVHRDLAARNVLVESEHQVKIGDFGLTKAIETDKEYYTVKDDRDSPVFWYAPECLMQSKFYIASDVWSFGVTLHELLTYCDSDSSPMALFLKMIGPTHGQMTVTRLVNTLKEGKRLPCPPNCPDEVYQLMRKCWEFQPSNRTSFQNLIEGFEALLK
Chain of JAK3 (P52333 whole entry): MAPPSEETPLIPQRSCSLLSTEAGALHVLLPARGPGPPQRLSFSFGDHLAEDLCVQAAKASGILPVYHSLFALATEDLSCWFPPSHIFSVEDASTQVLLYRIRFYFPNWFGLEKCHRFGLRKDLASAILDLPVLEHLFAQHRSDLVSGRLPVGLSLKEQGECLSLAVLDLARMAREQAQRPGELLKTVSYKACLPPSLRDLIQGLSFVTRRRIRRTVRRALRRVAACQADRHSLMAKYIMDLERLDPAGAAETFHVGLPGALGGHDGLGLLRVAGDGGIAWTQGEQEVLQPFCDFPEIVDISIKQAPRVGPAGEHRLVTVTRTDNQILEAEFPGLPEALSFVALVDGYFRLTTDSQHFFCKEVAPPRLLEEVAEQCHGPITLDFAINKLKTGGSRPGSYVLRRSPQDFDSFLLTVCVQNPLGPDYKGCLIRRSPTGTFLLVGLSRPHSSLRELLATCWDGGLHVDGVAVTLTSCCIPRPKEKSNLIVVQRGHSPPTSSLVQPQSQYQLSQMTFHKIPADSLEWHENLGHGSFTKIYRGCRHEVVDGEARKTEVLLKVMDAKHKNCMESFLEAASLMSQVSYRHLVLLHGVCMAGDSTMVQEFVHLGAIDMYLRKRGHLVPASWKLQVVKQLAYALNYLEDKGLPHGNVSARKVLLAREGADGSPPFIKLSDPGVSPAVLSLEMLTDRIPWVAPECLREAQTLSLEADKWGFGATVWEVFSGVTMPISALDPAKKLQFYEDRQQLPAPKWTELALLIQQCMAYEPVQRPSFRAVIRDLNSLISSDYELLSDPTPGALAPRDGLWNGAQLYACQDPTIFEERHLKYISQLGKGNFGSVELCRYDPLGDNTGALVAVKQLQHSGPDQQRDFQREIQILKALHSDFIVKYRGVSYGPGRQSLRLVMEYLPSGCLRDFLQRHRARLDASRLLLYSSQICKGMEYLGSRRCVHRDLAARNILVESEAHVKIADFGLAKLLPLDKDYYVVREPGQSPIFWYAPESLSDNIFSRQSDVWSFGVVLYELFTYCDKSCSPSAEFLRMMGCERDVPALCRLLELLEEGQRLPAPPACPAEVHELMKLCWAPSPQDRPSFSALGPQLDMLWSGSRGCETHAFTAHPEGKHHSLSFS

As to `Cc1cc2nnccc2cc1Nc1ncc2c(n1)n([C@@H]1CCOC1)c(=O)n2C` [Example 23, (R)-7-methyl-2-((7-methylcinnolin-6-yl)amino)-9-(tetrahydrofuran-3-yl)-7,9-dihydro-8H-purin-8-one], at JAK1, the “JAK1 enz pIC50” value is less than 5. Moreover, on JAK3, the “JAK3 enz pIC50” value is recorded as less than 5. Moreover, the IC50 at DNAPK was 0.0631 µM.
As for `Cc1cc2nccnc2cc1Nc1ncc2c(n1)n([C@@H]1CCOC1)c(=O)n2C` [Example 24, (R)-7-methyl-2-((7-methylquinoxalin-6-yl)amino)-9-(tetrahydrofuran-3-yl)-7,9-dihydro-8H-purin-8-one], the “JAK1 enz pIC50” value on JAK1 is on record as less than 5. Besides, the “JAK3 enz pIC50” value on JAK3 is less than 5. The IC50 at DNAPK is 0.0794 µM.
`Cc1cc2nnccc2cc1Nc1ncc2c(n1)n([C@@H]1CCCOC1)c(=O)n2C` [Example 25, (R)-7-methyl-2-((7-methylcinnolin-6-yl)amino)-9-(tetrahydro-2H-pyran-3-yl)-7,9-dihydro-8H-purin-8-one]: the “JAK1 enz pIC50” value on JAK1 was less than 5. For the same compound, the “JAK3 enz pIC50” value at JAK3 is less than 5. The IC50 at DNAPK is 0.0398 µM.
Turning to `Cc1cc2nccnc2cc1Nc1ncc2c(n1)n([C@@H]1CCCOC1)c(=O)n2C` [Example 26, (R)-7-methyl-2-((7-methylquinoxalin-6-yl)amino)-9-(tetrahydro-2H-pyran-3-yl)-7,9-dihydro-8H-purin-8-one], the “JAK1 enz pIC50” value at JAK1 was less than 5. Also, the “JAK3 enz pIC50” value at JAK3 is recorded as less than 5. For the same compound, the IC50 at DNAPK is 0.0398 µM.
On to `Cc1cc2nnccc2cc1Nc1ncc2c(n1)n([C@H]1CCCOC1)c(=O)n2C` [Example 27, (S)-7-methyl-2-((7-methylcinnolin-6-yl)amino)-9-(tetrahydro-2H-pyran-3-yl)-7,9-dihydro-8H-purin-8-one], for which the “JAK1 enz pIC50” value on JAK1 is given as less than 5. On JAK3, the “JAK3 enz pIC50” value was less than 5. Moreover, the IC50 at DNAPK is 0.0126 µM.
In the case of `Cc1cc2nccnc2cc1Nc1ncc2c(n1)n([C@H]1CCCOC1)c(=O)n2C` [Example 28, (S)-7-methyl-2-((7-methylquinoxalin-6-yl)amino)-9-(tetrahydro-2H-pyran-3-yl)-7,9-dihydro-8H-purin-8-one], the “JAK1 enz pIC50” value on JAK1 is reported as less than 5. For the same compound, the “JAK3 enz pIC50” value on JAK3 was less than 5. Besides, at DNAPK, the IC50 is 0.0158 µM.
Consider `Cc1cnc2cc(Nc3ncc4c(n3)n(C3CCOCC3)c(=O)n4C)c(C)cc2n1` [Example 33, 2-((2,7-dimethylquinoxalin-6-yl)amino)-7-methyl-9-(tetrahydro-2H-pyran-4-yl)-7,9-dihydro-8H-purin-8-one], for which the results for the IC50 at JAK1, on JAK3 and on DNAPK were greater than 10 µM, greater than 10 µM and 0.126 µM, respectively.
Turning to `Cc1cnc2cc(C)c(Nc3ncc4c(n3)n(C3CCOCC3)c(=O)n4C)cc2n1` [Example 34, 2-((3,7-dimethylquinoxalin-6-yl)amino)-7-methyl-9-(tetrahydro-2H-pyran-4-yl)-7,9-dihydro-8H-purin-8-one], the IC50 on JAK1 was greater than 10 µM; at JAK3 it was greater than 10 µM; at DNAPK, 0.0316 µM.
As for `Cc1cc2ncccc2cc1Nc1ncc2c(n1)n(C1CCS(=O)(=O)CC1)c(=O)n2C` [Example 35, 9-(1,1-dioxidotetrahydro-2H-thiopyran-4-yl)-7-methyl-2-((7-methylquinolin-6-yl)amino)-7,9-dihydro-8H-purin-8-one], the “JAK1 enz pIC50” value on JAK1 is less than 5. Besides, on JAK3, the “JAK3 enz pIC50” value is on record as 5.2. Further, the IC50 at DNAPK was 0.0398 µM.
For the compound `Cc1cc2ncccc2cc1Nc1ncc2c(n1)n(C1COC1)c(=O)n2C` [Example 36, 7-methyl-2-((7-methylquinolin-6-yl)amino)-9-(oxetan-3-yl)-7,9-dihydro-8H-purin-8-one], the “JAK1 enz pIC50” value at JAK1 was less than 5. Further, the “JAK3 enz pIC50” value at JAK3 was less than 5. In addition, the IC50 at DNAPK is 0.0316 µM.
For `Cc1cc2ncccc2cc1Nc1ncc2c(n1)n([C@@H]1CCNC[C@@H]1F)c(=O)n2C` [Example 38, 9-((3S,4R)-3-fluoropiperidin-4-yl)-7-methyl-2-((7-methylquinolin-6-yl)amino)-7,9-dihydro-8H-purin-8-one], at JAK1, the “JAK1 enz pIC50” value is recorded as less than 5. Further, the “JAK3 enz pIC50” value on JAK3 was less than 5. Besides, the IC50 at DNAPK was 3.16 µM.
For the compound `Cc1cc2ncccc2cc1Nc1ncc2c(n1)n([C@H]1CC[C@@](C)(N)CC1)c(=O)n2C` [Example 39, 9-((1s,4s)-4-amino-4-methylcyclohexyl)-7-methyl-2-((7-methylquinolin-6-yl)amino)-7,9-dihydro-8H-purin-8-one], the IC50 on JAK1 is greater than 10 µM; on JAK3 it was greater than 10 µM; on DNAPK it was 0.0794 µM.
On to `Cc1cc2ncccc2cc1Nc1ncc2c(n1)n([C@H]1CC[C@](C)(N)CC1)c(=O)n2C` [Example 40, 9-((1r,4r)-4-amino-4-methylcyclohexyl)-7-methyl-2-((7-methylquinolin-6-yl)amino)-7,9-dihydro-8H-purin-8-one], for which the values for the IC50 on JAK1, at JAK3 and on DNAPK were greater than 10 µM, greater than 7.94 µM and 0.158 µM, respectively.
As to `Cc1cc2ncccc2cc1Nc1ncc2c(n1)n([C@@H]1CCN(C)C[C@@H]1F)c(=O)n2C` [Example 46, 9-((3S,4R)-3-fluoro-1-methylpiperidin-4-yl)-7-methyl-2-((7-methylquinolin-6-yl)amino)-7,9-dihydro-8H-purin-8-one], the “JAK1 enz pIC50” value on JAK1 was less than 5. Further, the “JAK3 enz pIC50” value on JAK3 is on record as less than 5. Further, at DNAPK, the IC50 was 0.631 µM.
In the case of `Cc1cc2ncccc2cc1Nc1ncc2c(n1)n(C1CCN(C3COC3)CC1)c(=O)n2C` [Example 47, 7-methyl-2-((7-methylquinolin-6-yl)amino)-9-(1-(oxetan-3-yl)piperidin-4-yl)-7,9-dihydro-8H-purin-8-one], on JAK1, the “JAK1 enz pIC50” value is reported as less than 5. In addition, the “JAK3 enz pIC50” value on JAK3 is reported as less than 5. In addition, on DNAPK, the IC50 was 0.2 µM.
On to `Cc1cc2ncccc2cc1Nc1ncc2c(n1)n(C1CCN(CCO)CC1)c(=O)n2C` [Example 48, 9-(1-(2-hydroxyethyl)piperidin-4-yl)-7-methyl-2-((7-methylquinolin-6-yl)amino)-7,9-dihydro-8H-purin-8-one], for which, at JAK1, the “JAK1 enz pIC50” value was less than 5. Further, at JAK3, the “JAK3 enz pIC50” value was less than 5. Besides, at DNAPK, the IC50 was 0.316 µM.
On to `COCCN1CCC(n2c(=O)n(C)c3cnc(Nc4cc5cccnc5cc4C)nc32)CC1` [Example 49, 9-(1-(2-methoxyethyl)piperidin-4-yl)-7-methyl-2-((7-methylquinolin-6-yl)amino)-7,9-dihydro-8H-purin-8-one], for which the “JAK1 enz pIC50” value at JAK1 is less than 5. Further, on JAK3, the “JAK3 enz pIC50” value was less than 5. Moreover, at DNAPK, the IC50 is 0.251 µM.
On to `CCN1CCC(n2c(=O)n(C)c3cnc(Nc4cc5cccnc5cc4C)nc32)CC1` [Example 50, 9-(1-ethylpiperidin-4-yl)-7-methyl-2-((7-methylquinolin-6-yl)amino)-7,9-dihydro-8H-purin-8-one], for which the “JAK1 enz pIC50” value on JAK1 is on record as less than 5. Also, at JAK3, the “JAK3 enz pIC50” value was less than 5. The IC50 at DNAPK is 0.398 µM.
As for `CC(=O)N1CCC(n2c(=O)n(C)c3cnc(Nc4cc5cccnc5cc4C)nc32)CC1` [Example 51, 9-(1-acetylpiperidin-4-yl)-7-methyl-2-((7-methylquinolin-6-yl)amino)-7,9-dihydro-8H-purin-8-one], the “JAK1 enz pIC50” value at JAK1 is recorded as less than 5. Moreover, at JAK3, the “JAK3 enz pIC50” value was less than 5. The IC50 on DNAPK was 0.0126 µM.
